Data: patent US11879142B2, “Bioactive peptide molecules discovered by a combination of bioinformatics technique and chemical synthesis” (Purdue Research Foundation, priority 2021, dated 2024)
Non-standard residues stand in square brackets, D forms with d. Residues, ends and D or L forms follow the SMILES beside them. dOrn = NCCC[C@@H](N)C(=O)O

What was measured:
ESKAPE pathogens = assay: CLSI microbroth dilution antibacterial assay; format: cell-based
Procedure: Bioactivity testing. Initial compounds were tested for activity against antibiotic sensitive and antibiotic resistant ESKAPE pathogens at concentrations varying between 0.5 and 32 μg/mL using the CLSI microbroth dilution assay.^47 Any well with greater than 90% death was considered a hit.
(§1) Bacterial Strains. All strains used in this study except the Bacillus strain and the colistin resistant E. coli strains were obtained from Professor Paul Hergenrother (UIUC). The Bacillus strain was obtained from Professor William Metcalf (UIUC). The colistin resistant E. coli strains (AR Bank Number 0346, 0349, and 0350) were obtained from the CDC AR Isolate bank). E. coli ATCC 25922 (wild type, WT) BAA-2469 (resistant, R), colistin resistant E. coli, K pneumonia ATCC 27736 (WT) and BAA-2146 (R), A. baumannii ATCC 19606 (WT) and KB349 (R), and P. aeruginosa PAO1 (WT) and PA1000 (R) were grown on Mueller Hinton Broth 2 (Sigma Aldrich). S. aureus ATCC 29213 (WT) and NRS3 (R), Enterococcus species ATCC 19433 (WT) and 5235 (R), and B. subtilis 6633 (WT) were maintained on Bacto Brain Heart Infusion.
Antibacterial activity analysis. […] Testing was performed as previously described.10 Turbidity (OD600) of the wells was determined using a SpectraMax iD3 platereader (Molecular Devices). For the compounds that hit during initial screens, minimum inhibitory concentrations were determined. […]

[1] = tested on: Colistin-resistant bacteria; assay: CLSI microbroth dilution antibacterial assay, colistin-resistant strains; format: cell-based, E. coli
Text: as §1
Antibacterial activity analysis. Antibacterial activity analysis for all bacteria was performed using the microdilution broth method as outlined by the Clinical and Laboratory Standards Institute (CLSI).9 Mueller Hinton Broth 2 (MH, Sigma-Aldrich, 90922) was used for all testing. Testing was performed as previously described.10 Turbidity (OD600) of the wells was determined using a SpectraMax iD3 platereader (Molecular Devices). For the compounds that hit during initial screens, minimum inhibitory concentrations were determined. A minimum of three biological replicates were performed. […]

[2] = tested on: A549 non-small cell lung cancer cell line; assay: Alamar blue viability assay; format: cell-based, human; details: 16 ug/mL, 48 hours
Procedure: Anticancer Testing. A549 non-small cell lung cancer cells (ATCC CCL-185) were obtained directly from ATCC and used within 30 passages. A549 cells were maintained in RPMI 1640 medium supplemented with 10% fetal bovine serum, 100 U/mL penicillin, and 100 ug/mL streptomycin. For anticancer testing, cells were seeded at 2000 cells per well in 96 well plates and allowed to adhere overnight. Cells were then treated with compound at 16 ug/mL (1% DMSO final) or vehicle control for 48 hours. Viability was assessed using Alamar Blue. Specifically, resazurin (Sigma Aldrich, R7017) was dissolved at 440 μM in sterile PBS. 20 μL was then added to each well and incubated for 4-8 h at 37° C. Fluorescence was measured using a SpectraMax iD3 platereader (Excitation: 550 nm, Emission 590 nm). Percent death was calculated by subtracting the background from all wells and setting 0% death to vehicle treated controls.

`CC(C)[C@@H]1NC(=O)[C@@H](CCCNC(=N)N)NC(=O)[C@H]([C@@H](C)O)NC(=O)[C@@H](CCCN)NC(=O)[C@H](Cc2ccccc2)NC(=O)[C@@H](Cc2ccccc2)NC1=O` [pNP-43] (cyclo(F[dOrn]T[dR]V[dF])) was tested, and the “antibacterial activity (in words)” value (ESKAPE pathogens) was “activity against several Gram-negative bacteria”, the “susceptibility of colistin-resistant bacteria” value [1] was “resistant” and the “toxicity to A549 cells” value [2] was “no observed hemolytic activity or mammalian cell toxicity”.
